Laboratory results taken from PMC10675340, “Preparation, Radiolabeling with ^68Ga/^177Lu and Preclinical Evaluation of Novel Angiotensin Peptide Analog: A New Class of Peptides for Breast Cancer Targeting” (Pharmaceuticals, 2023).
Like-named read-outs stand apart in the source and are kept apart here. Where a SMILES comes first, the peptide text is derived from it. [ ]: non-standard residue; d: D form. The star is where a group is joined. DOTA = O=C(O)CN1CCN(CC(=O)O)CCN(CC(=O)*)CCN(CC(=O)O)CC1; βAla = NCCC(=O)O

Experiments:
AT1 receptor = experiment: In vivo receptor-blocking study in nude mice bearing MDA-MB-231 xenografts; details: mouse, total radioactivity, 2 h p.i., co-injected ~100 µg unlabeled AngII peptide analog, mean ± SD
Experimental: (§1) To validate the selectivity of the AngII peptide analog for its intended target AT1 receptors, we performed a receptor-blocking assay by administering a blocking dose of ~100 μg of unlabeled AngII peptide premixed with the radiolabeled AngII peptide analog at 2 h p.i. […] Furthermore, a varying influence pattern of the pharmacological receptor blocking dose was detected mainly in the intestines, heart, and kidneys as the uptake in these organs was reduced to variable degrees depending on the degree of AT1 receptor expression by these organs and tissues (Table 2).
(§2) For the receptor-blocking study, an additional group of mice was injected with the radiolabeled AngII peptide premixed with unlabeled AngII peptide (~100 μg) to serve as a receptor-blocking agent. In vivo, biodistribution and blocking studies were performed at 2 h p.i. as stated before.

[1] = as above; details: mouse, total radioactivity, nude mice with MDA-MB-231 xenografts, 2 h p.i., co-injected ~100 µg unlabeled AngII peptide analog, mean ± SD
Experimental: as §1, §2

[2] = In vivo tumor targeting and biodistribution in nude mice bearing MDA-MB-231 xenografts; design: species or system mouse; details: mouse, total radioactivity, nude mice with MDA-MB-231 xenografts, mean ± SD, n = 4-6; for tissue uptake at 0.75 h: 45 min p.i.; for tissue uptake at 2 h: 2 h p.i.
Experimental: (with 43% wash away from the tumors over 2 h). The amount of radioactivity found for the ^68Ga-labeled AngII peptide analog in the tumors was always more than the radioactivity detected in the blood and muscle. A general pattern of better tumor-to-blood and tumor-to-muscle uptake ratios was noticed over time for ^68Ga-labeled AngII peptide.
In vivo, tumor uptake was conducted as reported previously. In summary, ~5 million MDA-MB-231 cells in 200 µL sterile PBS were implanted subcutaneously into each nude mouse. Once tumor growth became sufficient (~50–500 mg), tumor uptake and organ biodistribution were carried out after injecting the radiolabeled AngII peptide. The percent of the injected dose per gram in the tumors was determined by using a custom-designed Quattro Pro X9 spreadsheet (Corel Corporation, Austin, TX, USA).

[3] = intestines without contents, read-out: Intestines uptake (portion without contents)
[4] = kidneys, read-out: Kidneys uptake
[5] = muscle/bone, read-out: Muscle/bone uptake
[6] = pancreas, read-out: Pancreas uptake
[7] = spleen, read-out: Spleen uptake

tissue uptake at 2 h (AT1 receptor; heart, intravenous, nude mice with MDA-MB-231 xenografts, read-out: Heart uptake, blocked): 0.23 ± 0.1 %ID/g
tissue uptake at 2 h (AT1 receptor; intestines without contents, nude mice with MDA-MB-231 xenografts, read-out: Intestines uptake (portion without contents), blocked): 0.8 ± 0.2 %ID/g
tissue uptake at 2 h (AT1 receptor; kidneys, intravenous, nude mice with MDA-MB-231 xenografts, read-out: Kidneys uptake, blocked): 2.01 ± 0.87 %ID/g
tissue uptake at 2 h (AT1 receptor; muscle/bone, nude mice with MDA-MB-231 xenografts, read-out: Muscle/bone uptake, blocked): 0.24 ± 0.1 %ID/g
tissue uptake at 2 h (AT1 receptor; tumor (MDA-MB-231 xenograft), MDA-MB-231 tumor in nude mice, read-out: Tumor uptake, blocked): 0.6 ± 0.27 %ID/g
dose excreted at 2 h (AT1 receptor; urine with bladder contents, intravenous, nude mice with MDA-MB-231 xenografts, read-out: Urine + Bladder (urinary excretion), blocked): 43.5 ± 7.9%
tissue uptake at 2 h ([1]; blood, intravenous, read-out: Blood uptake, blocked): 0.85 ± 0.2 %ID/g
tissue uptake at 2 h ([1]; liver, read-out: Liver uptake, blocked): 0.85 ± 0.24 %ID/g
tissue uptake at 2 h ([1]; lungs, intravenous, read-out: Lungs uptake, blocked): 0.89 ± 0.35 %ID/g
tissue uptake at 2 h ([1]; pancreas, read-out: Pancreas uptake, blocked): 0.54 ± 0.12 %ID/g
tissue uptake at 2 h ([1]; spleen, intravenous, read-out: Spleen uptake, blocked): 0.35 ± 0.09 %ID/g
tissue uptake at 2 h ([1]; stomach, read-out: Stomach uptake, blocked): 0.49 ± 0.18 %ID/g
tissue uptake at 0.75 h ([2]; blood, read-out: Blood uptake): 0.55 ± 0.12 %ID/g
tissue uptake at 2 h ([2]; blood, read-out: Blood uptake): 0.22 ± 0.1 %ID/g
tissue uptake at 0.75 h ([2]; heart, read-out: Heart uptake): 0.88 ± 0.3 %ID/g
tissue uptake at 2 h ([2]; heart, read-out: Heart uptake): 0.65 ± 0.19 %ID/g
tissue uptake at 0.75 h [2, 3]: 1.2 ± 0.35 %ID/g
tissue uptake at 2 h [2, 3]: 1.05 ± 0.31 %ID/g
tissue uptake at 0.75 h [2, 4]: 4.89 ± 1.97 %ID/g
tissue uptake at 2 h [2, 4]: 3.97 ± 1.2 %ID/g
tissue uptake at 0.75 h ([2]; liver, read-out: Liver uptake): 0.77 ± 0.22 %ID/g
tissue uptake at 2 h ([2]; liver, read-out: Liver uptake): 0.65 ± 0.28 %ID/g
tissue uptake at 0.75 h ([2]; lungs, read-out: Lungs uptake): 0.57 ± 0.16 %ID/g
tissue uptake at 2 h ([2]; lungs, read-out: Lungs uptake): 0.39 ± 0.15 %ID/g
tissue uptake at 0.75 h [2, 5]: 0.4 ± 0.17 %ID/g
tissue uptake at 2 h [2, 5]: 0.19 ± 0.1 %ID/g
tissue uptake at 0.75 h [2, 6]: 0.47 ± 0.11 %ID/g
tissue uptake at 2 h [2, 6]: 0.29 ± 0.05 %ID/g
tissue uptake at 0.75 h [2, 7]: 0.39 ± 0.08 %ID/g
tissue uptake at 2 h [2, 7]: 0.24 ± 0.05 %ID/g
tissue uptake at 0.75 h ([2]; stomach, read-out: Stomach uptake): 0.34 ± 0.1 %ID/g
SMILES: CC[C@H](C)[C@H](NC(=O)[C@H](Cc1ccc(O)cc1)NC(=O)[C@@H](NC(=O)[C@H](CCCNC(=N)N)NC(=O)[C@H](CC(=O)O)NC(=O)CCNC(=O)[C@H](CCCCN)NC(=O)CN1CCN(CC(=O)O)CCN(CC(=O)O)CCN(CC(=O)O)CC1)C(C)C)C(=O)N[C@@H](Cc1c[nH]cn1)C(=O)N1CCC[C@H]1C(=O)N[C@@H](Cc1ccccc1)C(=O)N[C@@H](Cc1c[nH]c2ccccc12)C(=O)N[C@@H](CCCCN)C(=O)N[C@@H](Cc1ccc(O)cc1)C(N)=O [^68Ga-DOTA-AngII peptide, metal not drawn] ({DOTA}-K[βAla]DRVYIHPFWKY-NH2)
